{
  "source": "patent US11167014B2",
  "about": "“Solid glp-1 derivative compositions for oral administration” (Novo Nordisk A/S, priority 2017, dated 2021)",
  "key": {"NCI-N87 cell monolayers": {"tested_on": "NCI-N87 cell monolayers", "test": "Assay (I): epithelial cell monolayer permeability (transepithelial transport, Papp) and TEER, NCI-N87"}, "Caco-2 cell monolayers": {"tested_on": "Caco-2 cell monolayers", "test": "Assay (I): epithelial cell monolayer permeability (transepithelial transport, Papp) and TEER, Caco-2"}, "[1]": {"settings": "NCI-N87, experiment of Table 3 (semaglutide)"}, "[2]": {"settings": "NCI-N87, experiment of Table 4 (FD4)"}, "[3]": {"settings": "Caco-2, experiment of Table 1 (semaglutide)"}, "[4]": {"settings": "Caco-2, experiment of Table 2 (Compound B)"}, "[5]": {"settings": "Caco-2, experiment of Table 5 (FD4)"}, "[6]": {"settings": "Caco-2, experiments of Tables 9-10 (semaglutide, FD4)"}},
  "note": "Where “and” joins values, the source holds several entries; their conditions need not be identical. Identical values can stand only once.",
  "data": [
    {"smiles": "O=C(O)CCCCCCCNC(=O)c1ccccc1O", "note": "[SNAC, sodium N-(8-(2-hydroxybenzoyl)amino)caprylate]", "values": [
      {"measurement": "transient decrease in cell monolayer TEER down to % of starting values", "setting": "NCI-N87 cell monolayers; [1]", "result": "~20 % of starting values"},
      {"measurement": "transient decrease in cell monolayer TEER down to % of starting values", "setting": "NCI-N87 cell monolayers; [2]", "result": "~25 % of starting values"},
      {"measurement": "transient decrease in cell monolayer TEER down to % of starting values", "setting": "Caco-2 cell monolayers; [3]", "result": "~25 % of starting values"},
      {"measurement": "transient decrease in cell monolayer TEER down to % of starting values", "setting": "Caco-2 cell monolayers; [4]", "result": "~25 % of starting values"},
      {"measurement": "transient decrease in cell monolayer TEER down to % of starting values", "setting": "Caco-2 cell monolayers; [5]", "result": "~35 % of starting values"},
      {"measurement": "transient decrease in cell monolayer TEER down to % of starting values", "setting": "Caco-2 cell monolayers; [6]", "result": "~35 % of starting values"}
    ]},
    {"smiles": "CCOc1ccc(Cc2cc([C@@H]3O[C@H](CO)[C@@H](O)[C@H](O)[C@H]3O)ccc2Cl)cc1", "note": "[dapagliflozin]", "values": [
      {"measurement": "transient decrease in cell monolayer TEER down to % of starting values", "setting": "NCI-N87 cell monolayers; [1]", "result": "~20 % of starting values"},
      {"measurement": "transient decrease in cell monolayer TEER down to % of starting values", "setting": "NCI-N87 cell monolayers; [2]", "result": "~25 % of starting values"},
      {"measurement": "dapagliflozin concentration for which non-recovering TEER was observed", "setting": "NCI-N87 cell monolayers; NCI-N87, 24 h in fresh medium", "result": "> 2.6", "unit": "mM"},
      {"measurement": "effect alone on Compound B permeability", "setting": "Caco-2 cell monolayers; 0.5-2.0 mM dapagliflozin, Caco-2 cell monolayers", "result": "negligible effect"},
      {"measurement": "transient decrease in cell monolayer TEER down to % of starting values", "setting": "Caco-2 cell monolayers; [3]", "result": "~25 % of starting values"},
      {"measurement": "transient decrease in cell monolayer TEER down to % of starting values", "setting": "Caco-2 cell monolayers; [4]", "result": "~25 % of starting values"},
      {"measurement": "transient decrease in cell monolayer TEER down to % of starting values", "setting": "Caco-2 cell monolayers; [5]", "result": "~35 % of starting values"},
      {"measurement": "dapagliflozin concentration for which non-recovering TEER was observed", "setting": "Caco-2 cell monolayers; Caco-2, 24 h in fresh medium", "result": "> 2.7 mM and 3 mM"}
    ]},
    {"smiles": "OC[C@H]1O[C@@H](c2ccc(Cl)c(Cc3ccc(O[C@H]4CCOC4)cc3)c2)[C@H](O)[C@@H](O)[C@@H]1O", "note": "[empagliflozin]", "values": [
      {"measurement": "transient decrease in cell monolayer TEER down to % of starting values", "setting": "Caco-2 cell monolayers; [6]", "result": "~35 % of starting values"}
    ]}
  ]
}
